# Experimental data from US12502365B2 (Instytut Biologii Doswiadczalnej Im. Marcelego Nenckiego …, priority 2019, dated 2025).
# Columns and labels:
# [1] = humans, oral; cited from earlier work
# [2] = single dose up to 800 mg or repeated dose up to 200 mg twice a day for a week; cited from earlier work
# MMP-9 [3] = target: T1, MMP-9 (Rattus norvegicus, UniProt P50282); assay: Inhibition of MMP-9-dependent nectin-3 cleavage in glutamate-stimulated hippocampal neuron cultures (immunoblotting); type: cell-based
# T1 construct: stimulate neuronal cell activity leading to release of MMP-9; endogenous in cells; host or cells: primary rat hippocampal neurons, 7 DIV
# Procedure: In the first non-limiting example, the compound was tested for specific inhibition of MMP-9 activity in vitro. Hippocampal neurons were prepared from newborn Wistar rats at postnatal day P0 as described previously (Habas et al., 2006). The culture medium consisted of Neurobasal Medium supplemented with B27 (Invitrogen) and 1 mM 1-glutamine, 100 U ml^−1 penicillin and 0.1 mg ml^−1 streptomycin. The cells used for these experiments were 7 DIV. […] The control cultures consisted of neurons stimulated with glutamate and of glutamate in the presence of inhibitor I (an inhibitor with proven inhibitory effect on MMP-9 activity). […] The MMP-9 activity level was evaluated by the cleavage of MMP-9 substrate-nectin-3.
# Nectin-3 is a transmembrane protein predominantly expressed at post-synaptic part of the synapse (van der Kooij et al., 2014). […] We evaluated the basic amount of nectin-3 (by immunoblotting) and the presence of a cut fragment of nectin-3 (approximately 17 kDa).
# For immunoblotting, cultures were homogenized in a lysis buffer containing 1 mM MgCl2, 5 mM HEPES (pH=7.4), 320 mM sucrose, 1 mM Na2F, and cOmplete™ Protease Inhibitor Cocktail (Roche) using Dounce glass homogenizer. Protein concentration was measured using BCA Protein Assay Kit (Pierce). […] For the quantification of individual bands, the scan of the photographic film was analyzed by densitometry using GeneTools software (Syngene).
# MMP-9 [4] = target: T2, MMP-9 (Mus musculus, UniProt P41245); assay: MMP-9-dependent nectin-3 cleavage in hippocampus after kainic acid injection (immunoblotting); type: in vivo, mice; conditions: 9 mg/kg i.p. 1 hour prior to KA; hippocampus 6 hours after KA
# T2 construct: strongly associated with the release of MMP-9 from dendritic spines; from tissue; host or cells: mouse hippocampus (in vivo, after kainic acid)
# Procedure: In a further nonlimiting example, marimastat was tested in vivo, in a mouse model of epileptogenesis (intra-hippocampal kainic acid injection). […] This is the optimal time allowing for its potential therapeutic effects. […] As a result of the KA injection, strong epileptic seizures were observed due to increased neuronal activity.
# The process of developing epileptic seizures evoked by KA (epileptogenesis) is strongly associated with the release of MMP-9 from dendritic spines. […] For this purpose, after 6 hours following KA-injection the hippocampus was isolated and the immunoblotting assay was performed for the presence of cleaved form of nectin-3 protein.
# [5] = tested on: MMP-1, MMP-2, MMP-3, MMP-7 and MMP-9; conditions: cited from earlier work
# [6] = tested on: murine cancer models: melanoma, hemangioma, ovarian carcinoma, colorectal, breast and pancreatic cancer; conditions: cited from earlier work
# [7] = tested on: mouse model of epileptogenesis (intra-hippocampal kainic acid injection); assay: Functional analysis in mouse model of epileptogenesis (intra-hippocampal kainic acid injection), video-EEG; type: in vivo, mice; conditions: for duration of the single seizure: P=0.02
# Procedure: The functional analysis of therapeutic use of marimastat in mouse model of epileptogenesis (intra-hippocampal kainic acid injection) was performed. Epileptogenesis was induced by the administration of kainic acid directly into the CA1 region of the hippocampus, during stereotactic surgeries. Coordinates for CA1 were chosen according to Paxinos Mouse Brain Atlas. […] The mice were injected intraperitoneally (9 mg/kg b.w.), 3 times after administration of kainic acid at: • 1. 30 minutes • 2. 6 hours • 3. […] Each group consisted of 6 animals; the experiment was performed in two repetitions. Simultaneously, just after KA injections, mice were implanted with cranial and hippocampal electrodes for EEG registration (FIG. 3). […] Injected kainic acid stimulated the degeneration within CA1 and CA3 region, but also led to the changes within dentate gyms area. One of the most important changes observed in the epileptogenesis process was mossy fiber sprouting located in dentate gyms DG. Mossy fiber sprouting is defined as an aberrant sprouting of granule cells axons (mossy fibers) into the inner molecular layer of the dentate gyrus. This process is observed in patients with temporal lobe epilepsy (Buckmaster, 2012). Therefore, hippocampal electrode location was implanted into DG, below the injection site, according to coordinates: The electrode implantation process proceeded according to the following protocol. Stainless steel screw electrodes (Ø1.6 mm, Bilaney Consultants GmbH, Germany) were placed in the skull (Table 3; FIG. 3). A bipolar hippocampal electrode was positioned in the dentate gyms. The 2-week continuous (24 h/7 days) video-EEG (vEEG) monitoring was started immediately after KA injection. Mice were placed in PMMA cages (one mouse per cage) and connected to the recording system with commutators (SL6C, Plastics One Inc., USA). vEEG was performed using the Twin EEG recording system connected to a Comet EEG PLUS with 57-channel amplifier AS40-PLUS (Natus Medical Incorporated, USA) and filtered (high-pass filter cut-off 0.3 Hz, low-pass filter cut off 100 Hz). The behavior of the animals was recorded using a digital camera I-PRO WV-SC385 (Panasonic, Japan). As outcome measures, the present Inventors assessed the occurrence, frequency and duration of spontaneous seizures. An electroencephalographic seizure was defined as a high amplitude (>2× baseline) rhythmic discharge that clearly represented an abnormal EEG pattern that lasted >5 s. The frequency of seizures in each mouse was calculated as the number of seizures per completed EEG recording day or per week. Modified Racine's scale was used in the study (Racine, 1972): The experiment was divided into three parts: • 1) first 24 hours post-KA injection (acute response to injected convulsant) • 2) first week post-KA injection (acute response to injected convulsant) • 3) 4 weeks after KA injection (epileptogenesis upon injected convulsant—chronic changes) In each stage, several parameters were calculated: seizure duration (in seconds), seizure score (according the Racine scale), seizure number (per animal/per day). Additionally, in the first 24 hours, the time between the kainic acid injection and first epileptic seizure was also estimated.
# [8] = 4 weeks after KA injection, not significant
# T1 sequence (P50282 108-708): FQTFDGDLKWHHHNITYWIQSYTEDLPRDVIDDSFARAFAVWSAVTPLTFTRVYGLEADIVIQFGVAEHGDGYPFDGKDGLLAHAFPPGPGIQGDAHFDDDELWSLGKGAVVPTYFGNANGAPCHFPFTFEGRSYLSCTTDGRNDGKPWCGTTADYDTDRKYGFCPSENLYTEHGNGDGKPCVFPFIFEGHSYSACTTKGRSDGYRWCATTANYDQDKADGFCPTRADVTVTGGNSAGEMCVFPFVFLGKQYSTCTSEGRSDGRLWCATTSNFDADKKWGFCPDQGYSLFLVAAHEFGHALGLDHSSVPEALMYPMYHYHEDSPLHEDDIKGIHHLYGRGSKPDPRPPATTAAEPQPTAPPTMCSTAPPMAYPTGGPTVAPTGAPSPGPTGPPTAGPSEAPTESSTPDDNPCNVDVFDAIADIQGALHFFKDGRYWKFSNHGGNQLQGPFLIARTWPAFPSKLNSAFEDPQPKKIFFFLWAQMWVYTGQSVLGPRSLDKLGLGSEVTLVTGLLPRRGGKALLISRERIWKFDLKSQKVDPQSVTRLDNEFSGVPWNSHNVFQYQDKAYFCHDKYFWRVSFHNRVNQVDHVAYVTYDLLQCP
# T2 sequence (P41245 108-730): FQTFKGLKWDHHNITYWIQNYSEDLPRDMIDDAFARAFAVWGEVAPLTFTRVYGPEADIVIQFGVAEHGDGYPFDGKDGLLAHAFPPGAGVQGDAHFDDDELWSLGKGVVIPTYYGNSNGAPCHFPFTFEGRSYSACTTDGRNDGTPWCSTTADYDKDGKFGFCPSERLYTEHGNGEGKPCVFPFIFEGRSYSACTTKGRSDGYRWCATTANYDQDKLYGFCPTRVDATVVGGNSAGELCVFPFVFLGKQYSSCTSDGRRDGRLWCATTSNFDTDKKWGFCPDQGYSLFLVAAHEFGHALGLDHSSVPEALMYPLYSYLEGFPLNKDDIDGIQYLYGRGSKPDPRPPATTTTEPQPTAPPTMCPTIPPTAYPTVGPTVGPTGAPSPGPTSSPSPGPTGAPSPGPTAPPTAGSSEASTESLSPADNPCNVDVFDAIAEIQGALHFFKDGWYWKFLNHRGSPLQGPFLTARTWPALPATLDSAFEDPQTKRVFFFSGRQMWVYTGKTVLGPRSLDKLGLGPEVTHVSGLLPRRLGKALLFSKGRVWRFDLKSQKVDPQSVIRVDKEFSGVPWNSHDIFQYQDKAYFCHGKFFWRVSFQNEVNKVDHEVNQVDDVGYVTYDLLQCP
structure (smiles),measurement,setting,value
"CNC(=O)[C@@H](NC(=O)[C@H](CC(C)C)[C@H](O)C(=O)NO)C(C)(C)C [marimastat, Marimastat]",bioavailability,[1],high and predictable
same,half-life,[1],approximately 15 hours
same,side effects in healthy subjects,[2],did not show any side effects
same,MMP-9-dependent cleavage of nectin-3 in vitro,"MMP-9 [3]; hippocampal dissociated cell cultures, 7 DIV, glutamate 5 μM, 17 kDa nectin-3 fragment",inhibits
same,minimum effective dose inhibiting nectin-3 cleavage,"MMP-9 [3]; tested at 5 nM, 0.5 μM, 5 μM, 40 μM and 100 μM, 30 min before glutamate",0.5 µM
same,MMP-9-dependent nectin-3 enzymatic cleavage in vivo (optical density of the 17 kDa nectin-3 fragment),MMP-9 [4],specifically reduced
same,inhibitory activity against major MMPs,[5],potent broad-spectrum inhibitory activity
same,tumor progression,[6],inhibited tumor progression
same,duration of the single seizure,[7]; 4 weeks after KA injection,inhibited
same,seizure number,[7]; [8],slightly decreased
same,seizure score,[7]; [8],slightly decreased
same,latency to the 1st seizure,[7]; first 24 hours post-KA,no differences
same,seizure duration,[7]; first 24 hours post-KA,no differences
same,seizure score (Racine scale),"[7]; first 24 hours post-KA, 9 mg/kg i.p. at 30 min, 6 h, 24 h, P=0.0016",significantly decreased
same,seizure number,"[7]; first 24 hours post-KA, P=0.005",significantly decreased
same,seizure number,[7]; first week post-KA,did not change
same,seizure score,[7]; first week post-KA,did not change
same,duration of the single seizure,[7]; first week post-KA,significantly reduced
